Experimental data published in PMC7463714, “Design and Synthesis of Novel Hybrid 8-Hydroxy Quinoline-Indole Derivatives as Inhibitors of Aβ Self-Aggregation and Metal Chelation-Induced Aβ Aggregation” (Molecules, 2020).
Entries after “also recorded” stand apart in the source; their conditions may differ.

Tests used:
Aβ1–42 = target: T1, Aβ1–42 (Homo sapiens, UniProt P05067); experiment: Self-induced Aβ1–42 aggregation, thioflavin T (ThT) fluorescence assay; assay type: biochemical; conditions: 25 µM Aβ1–42; compound 0.3-27 µM; 37 °C, 48 h; ThT fluorescence; read-out: EC50 against self-induced Aβ1–42 aggregation
T1 construct: Aβ1–42 (Adooq Bioscience, CA, USA); purchased Adooq Bioscience
Procedure: The novel hybrid 8-hydroxyquinoline-indole derivatives, 7a–7e, 12a, 12b, and the (8-hydroxyquinolin-2-yl)methyl-4-(1H-indole-2-carbonyl)piperazine-1-carboxylate analogs 18a–18h were evaluated for inhibitory activity against self-induced Aβ1–42 aggregation at five different concentrations (0.3, 1.0, 3, 9 and 27 µM) with 25 µM Aβ1–42, utilizing a thioflavin T (ThT) fluorescence assay with clioquinol, 1 as a positive control (Figure 3). In the absence of inhibitor, the self-induced Aβ1–42 aggregation ThT fluorescence was recorded as 115 arbitrary units (a.u.). The self-induced Aβ1–42 aggregation results for all the above synthetic analogs from the ThT fluorescence assay are shown in Table 1. […] The thioflavin T (ThT)-fluorescence assay was used to measure the inhibition of Aβ aggregation. Aβ1–42 (Adooq Bioscience, CA, USA) was pretreated with 1 mL of hexafluoroisopropanol (HFIP) to afford a stock solution, which was aliquoted into small samples. The solvent was evaporated at room temperature, and samples were stored at −80 °C. For Aβ1–42 aggregation inhibition experiments, phosphate buffer (pH 7.4) was added to the Aβ stock solution to afford a 50 µM concentration before use. A mixture of the Aβ1–42 peptide (10 µL, 25 µM final concentration) with or without the test compound (10 µL; 0.3, 1.0, 3, 9, and 27 µM) was incubated at 37 °C for 48 h. Blanks using phosphate buffer (pH 7.4) instead of Aβ, with or without test compound, were also assessed. Then 50 mM glycine-NaOH buffer (pH 8.0) containing ThT (5 µM) was added to 20 µL of the sample to afford a final volume of 200 µL. The fluorescence intensities were recorded (excitation, 450 nm; emission, 485 nm). The fluorescence intensities were background corrected to the no enzyme control and 100% of intensity reflected no inhibition of aggregation. To obtain the normalized amyloid aggregation inhibition relative to the control group, the amyloid aggregation/cell values were further divided by the total amyloid fluorescence of the control group. Using GraphPad Prism, the amyloid aggregation values (relative to control group) were entered along the corresponding concentrations for the triplicates and then a log transformation was obtained. Using the dose–response simulation module in GraphPad Prism, nonlinear regression fit (curve) was then generated for each small molecule with various concentrations used. Curves were then compared to determine if they were statistically different, by performing the best-fit values of selected unshared parameters between data sets and extra sum-of-squares F test, allowing for selection of the simpler model unless the P value was less than 0.05. The logEC50 output parameter was then selected to obtain the EC50 for each of the dose–response curves for the small molecules.

[1] = target: T2, Cu^2+-induced Aβ1–42 aggregation (Homo sapiens, UniProt P05067); experiment: Cu2+-induced Aβ1–42 aggregation, ThT fluorescence assay; assay type: biochemical; conditions: compound 50 µM; Aβ1–42 25 µM; Cu^2+ 25 µM; 24 h, 37 °C
T2 construct: Aβ1–42 (Adooq Bioscience, CA, USA); purchased Adooq Bioscience
Procedure: (§1) Initially, CuSO4 or ZnCl2 was added to Aβ1–42 peptides at room temperature and the mixture incubated with or without drugs for 24 h at 37 °C. The fluorescence intensity of Aβ1–42 peptide alone was designated as 100%.
(§2) Mixtures of the peptide (10 µL, 25 µM final concentration) with or without Cu^2+ or Zn^2+ (10 µL, 25 μM final concentration) and the test compound (10 µL, 50 μM final concentration) were incubated at 37 °C for 24 h. Then 50 mM glycine-NaOH buffer (pH 8.0) containing ThT (5 µM) was added to 20 µL of the sample and diluted to afford a final volume of 200 µL. Fluorescence intensities of the solutions were recorded (excitation, 450 nm; emission, 485 nm). The percentage of […] was calculated by the expression (1 − IFi/IFc) × 100, in which IFi and IFc are the fluorescence intensities obtained for Aβ in the presence and absence of inhibitors, respectively.

[2] = target: T3, Zn^2+-induced Aβ1–42 aggregation (Homo sapiens, UniProt P05067); experiment: Zn2+-induced Aβ1–42 aggregation, ThT fluorescence assay; assay type: biochemical; conditions: compound 50 µM; Aβ1–42 25 µM; Zn^2+ 25 µM; 24 h, 37 °C
T3 construct: Aβ1–42 (Adooq Bioscience, CA, USA); purchased Adooq Bioscience
Procedure: as §1, §2

HEK-tau cells = experiment: Protein aggregation in HEK-tau cells (ThT staining); assay type: cell-based, Human; conditions: 1 µM, 48 h, 37 °C; compared to clioquinol (1)
Procedure: In our study, we have shown that restoring metal homeostasis by treatment with hybrid 8-hydroxyquinoline-indole analogs reduces tau- and amyloid-mediated protein aggregation, and their associated neurotoxicity. Analogs 7a–7d, 18c–18f, and 18h were evaluated for their ability to reduce protein aggregation in HEK-tau cells. HEK-tau cells were exposed to the above Aβ1–42 aggregation inhibitors and parent drug clioquinol (1) at 1 µM for 48 h at 37 °C. Cells were assessed for amyloid deposits by staining with 0.1% w/v thioflavin T, counterstaining nuclei with DAPI, and mean ThT fluorescence signal per nucleus was calculated over multiple fields. All the analogs reduced fluorescence intensity (indicative of protein aggregation) by 26–62% (P < 0.001 by 2-tailed t-test).
(§3) Human Embryonic Kidney cells that overexpress tau protein (HEK-tau) cells or SY5Y neuroblastoma cells that express a familial-AD mutant of amyloid precursor protein (SY5Y-APPSw cells) were each seeded in 96-well plates at 8000 cells per well. After 24 h, cells were supplemented with test compound at 1 µM after diluting with medium. Vehicle only control was also included for each experiment. The cells were cultured for an additional 48 h at 37 °C. Both the cell lines were able to reach approximately 80% confluency in 48 h. Cells were assessed for amyloid deposits by staining with 0.1% w/v ThT, counterstaining nuclei with DAPI, and calculating mean ThT fluorescence signal per nucleus over multiple fields.

SY5Y-APPSw cells = experiment: Protein aggregation in SY5Y-APPSw cells (ThT staining); assay type: cell-based; conditions: 1 µM, 48 h, 37 °C; compared to clioquinol (1)
Procedure: In another study compounds 7a–7d, 18c–18f, and 18h were also evaluated for their ability to reduce protein aggregation in SY5Y-APPSw cells. SY5Y-APPSw cells were exposed to the above protein aggregation inhibitors and parent compound 1 at 1 µM for 48 h at 37 °C. Cells were assessed for amyloid deposits by staining with 0.1% w/v ThT, counterstaining nuclei with DAPI, and mean ThT fluorescence signal per nucleus calculated over multiple fields. All the analogs reduced fluorescence intensity (indicative of protein aggregation) by 22–67% (P < 0.001 by 2-tailed t-test). […] Thioflavin-T fluorescence assays for in vitro amyloid aggregation and cell culture models of amyloid aggregation overlap but are not identical. This is due to the fact that thioflavin in cell-culture stains not just amyloid aggregates but also other amyloid-like fibrillar structures. Another important difference is that in vitro aggregation is assessed after 24 h, whereas aggregation in cell culture is assessed after 48 h.
as §3

T1 sequence (P05067 672-713 limits assumed): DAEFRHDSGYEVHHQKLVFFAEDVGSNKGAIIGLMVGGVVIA
T2 sequence (P05067 672-713 limits assumed): as above
T3 sequence (P05067 672-713 limits assumed): as above

Row | SMILES | EC50 (Aβ1–42) [µM] | also measured
1 | O=C(OCc1ccc2c(Br)cc(Br)c(O)c2n1)N1CCN(C(=O)c2cc3ccccc3[nH]2)CC1 [Compound 18b, (5,7-Dibromo-8-hydroxyquinolin-2-yl)methyl-4-(1H-indole-2-carbonyl)piperazine-1-carboxylate] | > 10 | 
2 | COc1ccc2[nH]c(C(=O)N3CCN(C(=O)OCc4ccc5cccc(O)c5n4)CC3)cc2c1 [Compound 18d, (8-Hydroxyquinolin-2-yl)methyl-4-(5-methoxy-1H-indole-2-carbonyl)piperazine-1-carboxylate] | 1.48 | decrease of ThT fluorescence / inhibition of Cu^2+-induced Aβ1–42 aggregation [1]: 66.1%; decrease of ThT fluorescence / inhibition of Zn^2+-induced Aβ1–42 aggregation [2]: 59.3%; protein aggregation inhibition in HEK-tau cells, result in words (HEK-tau cells): effective in reducing protein aggregation; protein aggregation inhibition in SY5Y-APPSw cells, result in words (SY5Y-APPSw cells): most effective; also recorded: effective in reducing protein aggregation
3 | COc1ccc2[nH]c(C(=O)NCc3ccc4c(Cl)cc(Cl)c(O)c4n3)cc2c1 [Compound 12b, N-((5,7-Dichloro-8-hydroxyquinolin-2-yl)methyl)-5-methoxy-1H-indole-2-carboxamide] | > 10 | 
4 | O=C(O)c1cc2ccccc2[nH]1 [Compound 5a, 1H-indole-2-carboxylic acid, reference compound] | > 20 | 
5 | COc1ccc2[nH]c(C(=O)OCc3ccc4cccc(O)c4n3)cc2c1 [Compound 7c, (8-Hydroxyquinolin-2-yl)methyl-5-methoxy-1H-indole-2-carboxylate] | 3.22 | 
6 | Oc1c(I)cc(Cl)c2cccnc12 [Compound 1, Clioquinol, reference compound] | 9.95 | decrease of ThT fluorescence / inhibition of Cu^2+-induced Aβ1–42 aggregation [1]: 62.5%; decrease of ThT fluorescence / inhibition of Zn^2+-induced Aβ1–42 aggregation [2]: 57.2%
7 | O=C(OCc1ccc2cccc(O)c2n1)N1CCN(C(=O)c2cc3cc(F)ccc3[nH]2)CC1 [Compound 18h] | 2.58 | 
8 | O=C(OCc1ccc2cccc(O)c2n1)c1cc2ccccc2[nH]1 [Compound 7a, (8-Hydroxyquinolin-2-yl)methyl-1H-indole-2-carboxylate] | 4.26 | protein aggregation inhibition in SY5Y-APPSw cells, result in words (SY5Y-APPSw cells): most effective
9 | O=C(NCc1ccc2c(Cl)cc(Cl)c(O)c2n1)c1cc2ccccc2[nH]1 [Compound 12a, N-((5,7-Dichloro-8-hydroxyquinolin-2-yl)methyl)-1H-indole-2-carboxamide] | > 10 | 
10 | O=C(OCc1ccc2c(Cl)cc(Cl)c(O)c2n1)N1CCN(C(=O)c2cc3ccccc3[nH]2)CC1 [Compound 18c, (5,7-Dichloro-8-hydroxyquinolin-2-yl)methyl-4-(1H-indole-2-carbonyl)piperazine-1-carboxylate] | 1.72 | decrease of ThT fluorescence / inhibition of Cu^2+-induced Aβ1–42 aggregation [1]: 76.6%; decrease of ThT fluorescence / inhibition of Zn^2+-induced Aβ1–42 aggregation [2]: 70.3%; protein aggregation inhibition in HEK-tau cells, result in words (HEK-tau cells): most effective; also recorded: effective in reducing protein aggregation; protein aggregation inhibition in SY5Y-APPSw cells, result in words (SY5Y-APPSw cells): effective in reducing protein aggregation

The next lines start with results.

Row | EC50 (Aβ1–42) [µM] | SMILES | also measured
11 | 9.28 | O=C(OCc1ccc2c(Cl)cc(Cl)c(O)c2n1)c1cc2ccccc2[nH]1 [Compound 7b, (5,7-Dichloro-8-hydroxyquinolin-2-yl)methyl-1H-indole-2-carboxylate] | 
12 | 9.52 | O=C(OCc1ccc2c(Cl)cc(Cl)c(O)c2n1)c1cc2cc(F)ccc2[nH]1 [Compound 7e, (5,7-Dichloro-8-hydroxyquinolin-2-yl)methyl-5-fluoro-1H-indole-2-carboxylate] | 
13 | > 10 | O=C(OCc1ccc2c(Cl)cc(Cl)c(O)c2n1)N1CCN(C(=O)c2cc3cc(F)ccc3[nH]2)CC1 [Compound 18g, (5,7-Dichloro-8-hydroxyquinolin-2-yl)methyl-4-(5-fluoro-1H-indole-2-carbonyl)piperazine-1-carboxylate] | 
14 | > 10 | O=C(OCc1ccc2cccc(O)c2n1)N1CCN(C(=O)c2cc3ccccc3[nH]2)CC1 [Compound 18a, (8-Hydroxyquinolin-2-yl)methyl-4-(1H-indole-2-carbonyl)piperazine-1-carboxylate] | 
15 | 2.49 | COc1ccc2[nH]c(C(=O)N3CCN(C(=O)OCc4ccc5c(Br)cc(Br)c(O)c5n4)CC3)cc2c1 [Compound 18e, (5,7-Dibromo-8-hydroxyquinolin-2-yl)methyl-4-(5-methoxy-1H-indole-2-carbonyl)piperazine-1-carboxylate] | 
16 | 6.34 | O=C(OCc1ccc2cccc(O)c2n1)c1cc2cc(F)ccc2[nH]1 [Compound 7d, (8-Hydroxyquinolin-2-yl)methyl-5-fluoro-1H-indole-2-carboxylate] | 
